From patent US20260008787A1, “FUSED RING KRAS INHIBITORS FOR TREATING DISEASE” (BLOSSOMHILL THERAPEUTICS, INC., priority 2022, published 2026)
pIC50: −log10 of the molar value.

Legend:
Type in all cases: cell-based
Details in all cases: 384-well, CellTiter-Glo 2.0
[1] = tested on: SW620 (KRAS G12V); assay: Cell proliferation assay (CellTiter-Glo, 72 hours), SW620
Experimental: (§1) Two thousand KRAS mutant cells per well were seeded in 384-well white plate and then treated with indicated compounds for 72 hours at 37° C. and 5% CO2. Cell proliferation was measured using CellTiter-Glo 2.0 luciferase-based ATP detection assay (Promega, Madison, WI) following the manufacturer's protocol. IC50 values were determined using Prism software (GraphPad Software, San Diego, CA).

[2] = tested on: GP2D (KRAS G12D); assay: Cell proliferation assay (CellTiter-Glo, 72 hours), GP2D
Experimental: as §1

[3] = tested on: AGS (G12D); assay: Cell proliferation assay (CellTiter-Glo, 72 hours), AGS
Experimental: as §1

pIC50 ([1]; Homo sapiens, SW-620, 72 h)	pIC50 ([3]; 72 h)	Compound	pIC50 ([2]; GP2d, 72 h)	pIC50 [1]	pIC50 [2]	pIC50 [3]
< 5.52	< 5.52	C#Cc1c(F)ccc2cc(O)cc(-c3nc4c5c(nc(OC[C@@]67CCCN6C[C@H](F)C7)nc5c3F)N[C@@H](CCOC)CO4)c12 [Example 48, 5-ethynyl-6-fluoro-4-[(9S)-4-fluoro-2-{[(2R,7aS)-2-fluorotetrahydro-1H-pyrrolizin-7a(5H)-yl]methoxy}-9-(2-methoxyethyl)-9,10-dihydro-8H-7-oxa-1,3,6,10-tetraazacyclohepta[1,2,3-de]naphthalen-5-yl]naphthalen-2-ol]	5.66			
5.64	< 5.52	C#Cc1c(F)ccc2cc(O)cc(-c3nc4c5c(nc(OC[C@@]67CCCN6C[C@H](F)C7)nc5c3F)N(C)[C@@H](C(C)C)CO4)c12 [Example 51, 5-ethynyl-6-fluoro-4-[(9S)-4-fluoro-2-{[(2R,7aS)-2-fluorotetrahydro-1H-pyrrolizin-7a(5H)-yl]methoxy}-10-methyl-9-(propan-2-yl)-9,10-dihydro-8H-7-oxa-1,3,6,10-tetraazacyclohepta[1,2,3-de]naphthalen-5-yl]naphthalen-2-ol]	6.67			
8.45	8.29	C#Cc1c(F)ccc2cc(O)cc(-c3nc4c5c(nc(OC[C@@]67CCCN6C[C@H](F)C7)nc5c3F)N(C(C)C)[C@@H](C)CO4)c12 [Example 56, 5-ethynyl-6-fluoro-4-[(9S)-4-fluoro-2-{1[(2R,7aS)-2-fluorotetrahydro-1H-pyrrolizin-7a(5H)-yl]methoxy}-9-methyl-10-(propan-2-yl)-9,10-dihydro-8H-7-oxa-1,3,6,10-tetraazacyclohepta[1,2,3-de]naphthalen-5-yl]naphthalen-2-ol]	8.61			
7.37	7.23	C#Cc1c(F)ccc2cc(O)cc(-c3nc4c5c(nc(OC[C@@]67CCCN6C[C@H](F)C7)nc5c3F)N3CCOC[C@H]3CO4)c12 [Example 58, 5-ethynyl-6-fluoro-4-[(8aS)-4-fluoro-2-{[(2R,7aS)-2-fluorotetrahydro-1H-pyrrolizin-7a(5H)-yl]methoxy}-8a,9,11,12-tetrahydro-8H-7,10-dioxa-1,3,6,12a-tetraazabenzo[4,5]cyclohepta[1,2,3-de]naphthalen-5-yl]naphthalen-2-ol]	7.44			
		C#Cc1c(F)ccc2cc(O)cc(-c3nc4c5c(nc(OC[C@@]67CCCN6C/C(=C\F)C7)nc5c3F)N3CCCC[C@H]3CO4)c12 [Example 76, 5-ethynyl-6-fluoro-4-[(8aS)-4-fluoro-2-{[(2Z,7aS)-2-(fluoromethylidene)tetrahydro-1H-pyrrolizin-7a(5H)-yl]methoxy}-8,8a,9,10,11,12-hexahydro-7-oxa-1,3,6,12a-tetraazabenzo[4,5]cyclohepta[1,2,3-de]naphthalen-5-yl]naphthalen-2-ol]		7.93	8.47	7.91
< 5.52	< 5.52	C#Cc1c(F)ccc2cc(O)cc(-c3nc4c5c(nc(OC[C@@]67CCC[N+]6(C)C[C@H](F)C7)nc5c3F)N[C@@H](C)CO4)c12 (stereo partly drawn) [Example 77, (2R,7aS)-7a-({[(9S)-5-(8-ethynyl-7-fluoro-3-hydroxynaphthalen-1-yl)-4-fluoro-9-methyl-9,10-dihydro-8H-7-oxa-1,3,6,10-tetraazacyclohepta[1,2,3-de]naphthalen-2-yl]oxy}methyl)-2-fluoro-4-methylhexahydro-1H-pyrrolizin-4-ium]	5.87			
< 5.52	< 5.52	C#Cc1c(F)ccc2cc(O)cc(-c3nc4c5c(nc(OC[C@@]67CCCN6C[C@H](F)C7)nc5c3F)N(Cc3ccccc3)[C@@H](CO)CO4)c12 [Example 80, 4-[(9S)-10-benzyl-4-fluoro-2-{[(2R,7aS)-2-fluorotetrahydro-1H-pyrrolizin-7a(5H)-yl]methoxy}-9-(hydroxymethyl)-9,10-dihydro-8H-7-oxa-1,3,6,10-tetraazacyclohepta[1,2,3-de]naphthalen-5-yl]-5-ethynyl-6-fluoronaphthalen-2-ol]	< 5.52			
< 5.52	< 5.52	C#Cc1c(F)ccc2cc(O)cc(-c3nc4c5c(nc(OC[C@@]67CCCN6C[C@H](F)C7)nc5c3F)N(Cc3ccccc3)[C@H](CO)CO4)c12 [Example 81, 4-[(9R)-10-benzyl-4-fluoro-2-{[(2R,7aS)-2-fluorotetrahydro-1H-pyrrolizin-7a(5H)-yl]methoxy}-9-(hydroxymethyl)-9,10-dihydro-8H-7-oxa-1,3,6,10-tetraazacyclohepta[1,2,3-de]naphthalen-5-yl]-5-ethynyl-6-fluoronaphthalen-2-ol]	< 5.52			
6.98	7.55	C#Cc1c(F)ccc2cc(O)cc(-c3nc4c5c(nc(OC[C@@]67CCCN6C[C@H](F)C7)nc5c3F)N3C[C@@H](O)CC[C@H]3CO4)c12 [Example 86, (8aS,11S)-5-(8-ethynyl-7-fluoro-3-hydroxynaphthalen-1-yl)-4-fluoro-2-{[(2R,7aS)-2-fluorotetrahydro-1H-pyrrolizin-7a(5H)-yl]methoxy}-8,8a,9,10,11,12-hexahydro-7-oxa-1,3,6,12a-tetraazabenzo[4,5]cyclohepta[1,2,3-de]naphthalen-11-7ol]	8.04			
6.16	6.88	C#Cc1c(F)ccc2cc(O)cc(-c3nc4c5c(nc(OC[C@@]67CCCN6C[C@H](F)C7)nc5c3F)N3C[C@H](O)CC[C@@H]3CO4)c12 [Example 87, (8aR,11R)-5-(8-ethynyl-7-fluoro-3-hydroxynaphthalen-1-yl)-4-fluoro-2-{[(2R,7aS)-2-fluorotetrahydro-1H-pyrrolizin-7a(5H)-yl]methoxy}-8,8a,9,10,11,12-hexahydro-7-oxa-1,3,6,12a-tetraazabenzo[4,5]cyclohepta[1,2,3-de]naphthalen-11-ol]	7.19			
5.71	6.12	C#Cc1c(F)ccc2cc(O)cc(-c3nc4c5c(nc(OC[C@@]67CCCN6C[C@H](F)C7)nc5c3F)N[C@@H](CC)CO4)c12 [Example 90, 4-[(9S)-9-ethyl-4-fluoro-2-{[(2R,7aS)-2-fluorotetrahydro-1H-pyrrolizin-7a(5H)-yl]methoxy}-9,10-dihydro-8H-7-oxa-1,3,6,10-tetraazacyclohepta[1,2,3-de]naphthalen-5-yl]-5-ethynyl-6-fluoronaphthalen-2-ol]	6.72			
< 5.52	6.03	C#Cc1c(F)ccc2cc(O)cc(-c3nc4c5c(nc(OC[C@@]67CCCN6C[C@H](F)C7)nc5c3F)N(C)[C@H](CO)CO4)c12 [Example 91, 5-ethynyl-6-fluoro-4-[(9R)-4-fluoro-2-{[(2R,7aS)-2-fluorotetrahydro-1H-pyrrolizin-7a(5H)-yl]methoxy}-9-(hydroxymethyl)-10-methyl-9,10-dihydro-8H-7-oxa-1,3,6,10-tetraazacyclohepta[1,2,3-de]naphthalen-5-yl]naphthalen-2-ol]	6.27			
6.24	6.41	CCc1c(F)ccc2cc(O)cc(-c3nc4c5c(nc(OC[C@@]67CCCN6C[C@H](F)C7)nc5c3F)N(C)[C@H](CO)CO4)c12 [Example 92, 5-ethyl-6-fluoro-4-[(9R)-4-fluoro-2-{[(2R,7aS)-2-fluorotetrahydro-1H-pyrrolizin-7a(5H)-yl]methoxy}-9-(hydroxymethyl)-10-methyl-9,10-dihydro-8H-7-oxa-1,3,6,10-tetraazacyclohepta[1,2,3-de]naphthalen-5-yl]naphthalen-2-ol]	6.46			
